One data set deals with T1, hSLO2.2 (Homo sapiens, UniProt Q5JUK3).
T1 construct: expressed in transfected cells; host or cells: HEK
Description: SLO2.2 inhibition in HEK cells. In kind it is cell-based.

The subject of data set [1] is GABAA, Flunitrazepam, Central. Kind of data set: LeadProfilingScreen radioligand binding. Also noted: species or system rat.
The next data set has as its target Endothelin ETA (Homo sapiens, UniProt P25101). Description: LeadProfilingScreen radioligand binding.
The next data set concerns the target Estrogen Erα (Homo sapiens, UniProt P03372). Description: LeadProfilingScreen radioligand binding.
The next data set deals with Thyroid Hormone. Kind of data set: LeadProfilingScreen radioligand binding. On the set-up: species or system rat.
For a further data set, the target named is hERG potassium channel (Homo sapiens, UniProt Q12809). Kind of data set: LeadProfilingScreen radioligand binding. The following applies: probe [3H]Dofetilide.
In a further data set the target is Adenosine A1 (Homo sapiens, UniProt P30542). Description: LeadProfilingScreen radioligand binding.
Sequence of Adenosine A1 (P30542 whole entry): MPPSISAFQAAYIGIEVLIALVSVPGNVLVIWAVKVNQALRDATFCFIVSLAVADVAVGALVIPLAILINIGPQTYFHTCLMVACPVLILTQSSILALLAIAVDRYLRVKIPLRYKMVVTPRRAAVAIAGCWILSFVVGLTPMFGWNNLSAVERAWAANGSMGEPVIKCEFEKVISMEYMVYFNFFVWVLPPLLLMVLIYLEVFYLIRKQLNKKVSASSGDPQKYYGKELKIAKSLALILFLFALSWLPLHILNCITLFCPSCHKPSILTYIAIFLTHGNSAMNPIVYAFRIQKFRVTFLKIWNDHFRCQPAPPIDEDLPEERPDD
A further data set addresses Bradykinin B2 (Homo sapiens, UniProt P30411). Description: LeadProfilingScreen radioligand binding.
Another data set addresses Potassium Channel [KATP] (Cricetus cricetus, UniProt Q09427). Description: LeadProfilingScreen radioligand binding. Also noted: species or system hamster. The procedure: Both lead compounds, VU6047606 and VU6032735, were subjected to radioligand binding assays in a Eurofins LeadProfilingScreen SafetyScreen Panel to detect potential adverse activity, relative selectivity, and off-target activity. Compounds were screened at 10 μM and percent inhibition was monitored across 68 potential off-target G protein-coupled receptors, ion channels, nuclear hormone receptors, and transporters. ,

The target in another data set is Dopamine D1 (Homo sapiens, UniProt P21728). Kind of data set: LeadProfilingScreen radioligand binding.
Sequence of Dopamine D1 (P21728 whole entry): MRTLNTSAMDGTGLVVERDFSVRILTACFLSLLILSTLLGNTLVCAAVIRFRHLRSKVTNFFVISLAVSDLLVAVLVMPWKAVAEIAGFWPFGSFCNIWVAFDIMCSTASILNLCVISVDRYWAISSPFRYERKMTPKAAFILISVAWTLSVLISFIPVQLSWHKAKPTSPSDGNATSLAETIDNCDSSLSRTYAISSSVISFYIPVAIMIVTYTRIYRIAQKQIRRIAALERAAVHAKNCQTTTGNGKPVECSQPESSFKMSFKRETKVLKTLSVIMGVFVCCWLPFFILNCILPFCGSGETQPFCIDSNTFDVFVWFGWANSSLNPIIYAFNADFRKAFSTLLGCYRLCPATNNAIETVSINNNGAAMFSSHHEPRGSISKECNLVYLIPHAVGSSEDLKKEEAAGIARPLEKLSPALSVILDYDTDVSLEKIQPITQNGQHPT
Another data set has as its system Imidazoline I2, Central. Description: LeadProfilingScreen radioligand binding. On the set-up: species or system rat.
In another data set the target is Calcium Channel N-Type (Rattus norvegicus, UniProt Q02294). Kind of data set: LeadProfilingScreen radioligand binding.
Another data set concerns the target Cannabinoid CB1 (Homo sapiens, UniProt P21554). Description: LeadProfilingScreen radioligand binding.
In the next data set the test system is Phorbol Ester. Kind of data set: LeadProfilingScreen radioligand binding. Also noted: species or system mouse.
Another data set has as its target Prostanoid EP4 (Homo sapiens, UniProt P35408). Kind of data set: LeadProfilingScreen radioligand binding.
A short description of data set [2]: Multispecies hepatocyte MetID. Type of data set: in vitro ADME, dog. The following applies: 4 h incubation with hepatocytes, 10 μM. How it is done:
(§1) Metabolites were identified after preincubating each compound at a 10 μM final concentration with 2.5 × 10^5 hepatocytes from human, dog, cynomolgus monkey, and rat in 200 μL of Optiincubate buffer (BioIVT, Westbury, NY). […] After centrifugation, 60 μL of the supernatant was transferred to 60 μL of water for LC-MS analysis. Samples were analyzed using a Thermo Scientific Vanquish UHPLC consisting of a VH-P10-A pump, a VH-A10-A sampler module, a VH-C10-A column compartment, and the VF-D11-A UV detector coupled to an Orbitrap Fusion Lumos instrument with UVPD. A binary solvent system consisting of (A) water with 0.1% formic acid and (B) acetonitrile with 0.1% formic acid was used with an Accucore Vanquish C18+, 2.1 mm × 100 mm, 1.5 μm, UHPLC column maintained at 40 °C. The data generated by data-dependent acquisition via normal acquisition and AcquireX were processed manually with Thermo Scientific FreeStyle and assisted by Compound Discoverer 3.3.1.111 to aid in the structural assignments.

Another data set addresses CYP2D6 (Homo sapiens, UniProt P10635). Description: CYP450 inhibition. Type of data set: in vitro ADME. The note with it: read-out: CYP450 Inhibition, 2D6.
The target of another data set is Endothelin ETB (Homo sapiens, UniProt P24530). Kind of data set: LeadProfilingScreen radioligand binding.
Sequence of Endothelin ETB (P24530 27-442): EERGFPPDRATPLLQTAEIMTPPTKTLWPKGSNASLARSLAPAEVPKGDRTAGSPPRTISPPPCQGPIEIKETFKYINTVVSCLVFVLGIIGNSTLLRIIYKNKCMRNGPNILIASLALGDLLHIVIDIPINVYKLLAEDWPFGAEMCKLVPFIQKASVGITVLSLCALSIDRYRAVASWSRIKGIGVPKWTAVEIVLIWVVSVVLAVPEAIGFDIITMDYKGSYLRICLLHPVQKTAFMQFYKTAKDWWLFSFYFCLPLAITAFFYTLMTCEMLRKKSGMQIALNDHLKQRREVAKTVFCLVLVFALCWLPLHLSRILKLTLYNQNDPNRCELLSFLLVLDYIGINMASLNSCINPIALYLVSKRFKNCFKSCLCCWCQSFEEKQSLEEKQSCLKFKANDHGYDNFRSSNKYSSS
Data set [3] in a line: Multispecies hepatocyte MetID. Type of data set: in vitro ADME, minipig. The following applies: 4 h incubation with hepatocytes, 10 μM.
A further data set deals with Neuropeptide Y Y2 (Homo sapiens, UniProt P49146). Kind of data set: LeadProfilingScreen radioligand binding.
Sequence of Neuropeptide Y Y2 (P49146 whole entry): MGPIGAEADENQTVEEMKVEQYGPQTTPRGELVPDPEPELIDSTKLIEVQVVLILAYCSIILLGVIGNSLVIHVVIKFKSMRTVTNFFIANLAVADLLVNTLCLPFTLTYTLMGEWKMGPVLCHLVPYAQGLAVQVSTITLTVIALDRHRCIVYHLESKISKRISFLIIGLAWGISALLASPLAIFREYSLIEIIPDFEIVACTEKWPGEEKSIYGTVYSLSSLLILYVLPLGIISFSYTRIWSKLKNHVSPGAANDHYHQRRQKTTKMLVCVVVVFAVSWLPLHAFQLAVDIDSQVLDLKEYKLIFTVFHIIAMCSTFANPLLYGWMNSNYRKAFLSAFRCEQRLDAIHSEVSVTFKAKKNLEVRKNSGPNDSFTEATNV
A further data set addresses CYP1A2 (Homo sapiens, UniProt P05177). Kind of data set: CYP450 inhibition. In kind it is in vitro ADME. The note with it: read-out: CYP450 Inhibition, 1A2.
Data set [4] is described as follows: Multispecies hepatocyte MetID. Type of data set: in vitro ADME, rat. The note with it: 4 h incubation with hepatocytes, 10 μM. How it is done:
as §1

Data set [5] can be described thus: Discrete IV PK in female mice. Type of data set: in vivo, mouse. The note with it: 5 mg/kg IV. The procedure:
In-life phase–Compounds were formulated in 12% ethanol, 48% PEG400, and 40% DMSO (v/v/v) at a concentration of 1 mg/mL and administered as a single 0.2 mg/kg IV dose (1 mL/kg) to male, Sprague–Dawley rats (n = 1; 342 g body weight) via injection into a surgically implanted jugular vein catheter. Blood samples were collected serially from a surgically implanted carotid artery catheter in each animal over multiple postadministration time points (0.033, 0.117, 0.25, 0.5, 1, 2, 4, 7, and 24 h) into chilled, K2EDTA anticoagulant-fortified tubes and immediately placed on wet ice. The blood samples were then centrifuged (1700 rcf, 5 min, 4 °C) in order to obtain plasma samples, which were stored at −80 °C until analysis by LC-MS/MS. VU6032735 was also dosed IV in C57Bl6 mice at 5 mg/kg IV to determine mouse PK. Formulation and experimental design were identical to those used for rats except that whole blood was used for analysis.
Samples were analyzed via electrospray ionization (ESI) LC-MS/MS on an AB Sciex 4500 (Foster City, CA) triple-quadrupole instrument that was coupled with an Agilent 1290 Infinity Binary Pump and multisampler (Santa Clara, CA) and concentrations (ng/mL or ng/g) were determined using a matrix-matched 10-point standard curve and then converted to nM concentrations. Quantitation of compounds was performed via AB Sciex Multiquant software using the raw analyte:IS peak area ratios. The typical detection range was 0.5 ng/mL to ≥5000 ng/mL utilizing a quadratic equation regression with 1/x² weighting. Correction for dilution of all tissue samples was performed postquantitation. The corrections for dilution in the extraction buffer employed correction factors specific to each tissue weight.

The structures appear in SMILES notation. Values joined by “and” are separate entries in the source; they are usually repeats but may differ in a detail not shown here. Identical values can stand only once.

By % inhibition is commonly meant the drop in the measured response relative to a control, in per cent. By inhibition is commonly meant the change of the read-out against control, counted positive when it falls. By AUC is commonly meant concentration integrated over time. Higher therefore signals more exposure. By MRT is commonly meant a mean duration of stay, worked out from the concentration-time curve.

Sequence of CYP1A2 (P05177 whole entry, species assumed): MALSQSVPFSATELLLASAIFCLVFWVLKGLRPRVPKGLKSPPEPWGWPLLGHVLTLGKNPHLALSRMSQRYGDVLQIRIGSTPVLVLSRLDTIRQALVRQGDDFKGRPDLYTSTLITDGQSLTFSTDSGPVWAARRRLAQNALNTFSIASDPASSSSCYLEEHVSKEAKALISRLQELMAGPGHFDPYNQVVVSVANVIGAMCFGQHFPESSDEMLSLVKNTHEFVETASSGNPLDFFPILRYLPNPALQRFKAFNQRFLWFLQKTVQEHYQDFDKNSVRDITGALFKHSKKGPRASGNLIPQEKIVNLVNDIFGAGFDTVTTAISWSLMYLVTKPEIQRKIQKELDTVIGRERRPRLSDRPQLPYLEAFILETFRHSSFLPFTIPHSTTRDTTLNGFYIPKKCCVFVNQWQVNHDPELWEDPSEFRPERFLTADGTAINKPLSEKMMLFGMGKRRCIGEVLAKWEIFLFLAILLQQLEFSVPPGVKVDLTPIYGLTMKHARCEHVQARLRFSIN
Sequence of Cannabinoid CB1 (P21554 whole entry): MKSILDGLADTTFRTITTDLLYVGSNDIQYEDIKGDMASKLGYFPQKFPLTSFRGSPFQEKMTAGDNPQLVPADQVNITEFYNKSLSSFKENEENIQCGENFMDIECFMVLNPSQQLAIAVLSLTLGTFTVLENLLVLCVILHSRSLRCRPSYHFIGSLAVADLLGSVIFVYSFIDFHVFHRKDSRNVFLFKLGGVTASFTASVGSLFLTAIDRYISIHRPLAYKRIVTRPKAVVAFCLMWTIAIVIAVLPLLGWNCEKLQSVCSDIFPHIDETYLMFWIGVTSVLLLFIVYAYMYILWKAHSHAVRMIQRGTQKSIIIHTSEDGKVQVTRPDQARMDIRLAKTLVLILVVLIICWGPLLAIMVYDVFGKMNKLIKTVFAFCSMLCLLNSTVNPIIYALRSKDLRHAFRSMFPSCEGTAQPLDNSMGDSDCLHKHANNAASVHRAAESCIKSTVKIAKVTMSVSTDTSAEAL
Sequence of Bradykinin B2 (P30411 whole entry): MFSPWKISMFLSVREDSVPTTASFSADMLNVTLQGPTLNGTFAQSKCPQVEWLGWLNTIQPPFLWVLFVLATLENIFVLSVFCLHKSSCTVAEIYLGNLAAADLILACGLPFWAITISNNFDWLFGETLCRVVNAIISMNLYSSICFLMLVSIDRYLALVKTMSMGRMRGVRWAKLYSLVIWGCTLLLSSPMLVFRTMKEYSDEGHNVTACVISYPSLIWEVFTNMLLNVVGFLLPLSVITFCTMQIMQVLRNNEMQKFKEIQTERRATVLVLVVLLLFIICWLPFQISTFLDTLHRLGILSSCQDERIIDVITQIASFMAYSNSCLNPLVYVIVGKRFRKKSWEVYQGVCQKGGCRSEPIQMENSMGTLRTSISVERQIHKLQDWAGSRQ
Sequence of Endothelin ETA (P25101 21-427): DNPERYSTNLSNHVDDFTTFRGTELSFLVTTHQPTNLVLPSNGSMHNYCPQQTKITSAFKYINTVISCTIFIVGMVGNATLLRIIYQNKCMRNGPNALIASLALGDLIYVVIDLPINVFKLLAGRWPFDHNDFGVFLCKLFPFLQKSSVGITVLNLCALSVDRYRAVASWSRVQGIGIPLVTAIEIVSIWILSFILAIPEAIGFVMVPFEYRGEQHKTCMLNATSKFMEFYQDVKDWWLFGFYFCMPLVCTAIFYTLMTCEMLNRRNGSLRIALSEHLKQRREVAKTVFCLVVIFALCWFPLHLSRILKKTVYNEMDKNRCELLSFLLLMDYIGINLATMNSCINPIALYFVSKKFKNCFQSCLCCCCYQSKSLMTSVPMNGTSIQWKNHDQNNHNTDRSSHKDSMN
Sequence of Estrogen Erα (P03372 whole entry): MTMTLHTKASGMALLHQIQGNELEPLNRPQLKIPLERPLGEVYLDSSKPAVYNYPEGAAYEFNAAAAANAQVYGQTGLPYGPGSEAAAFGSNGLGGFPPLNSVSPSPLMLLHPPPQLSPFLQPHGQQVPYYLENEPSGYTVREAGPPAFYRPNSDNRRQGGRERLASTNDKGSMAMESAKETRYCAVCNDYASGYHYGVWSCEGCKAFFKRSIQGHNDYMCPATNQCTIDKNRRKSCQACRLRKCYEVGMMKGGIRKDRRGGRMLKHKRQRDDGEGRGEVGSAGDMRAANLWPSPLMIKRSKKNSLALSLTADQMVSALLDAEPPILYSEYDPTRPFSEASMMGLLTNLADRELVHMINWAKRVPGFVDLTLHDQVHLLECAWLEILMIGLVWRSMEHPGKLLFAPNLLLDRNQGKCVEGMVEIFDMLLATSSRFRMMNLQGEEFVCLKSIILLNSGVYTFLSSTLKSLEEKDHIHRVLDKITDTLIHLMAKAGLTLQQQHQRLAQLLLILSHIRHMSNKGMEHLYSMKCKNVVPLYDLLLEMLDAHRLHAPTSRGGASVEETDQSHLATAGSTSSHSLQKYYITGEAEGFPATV
Sequence of Prostanoid EP4 (P35408 whole entry): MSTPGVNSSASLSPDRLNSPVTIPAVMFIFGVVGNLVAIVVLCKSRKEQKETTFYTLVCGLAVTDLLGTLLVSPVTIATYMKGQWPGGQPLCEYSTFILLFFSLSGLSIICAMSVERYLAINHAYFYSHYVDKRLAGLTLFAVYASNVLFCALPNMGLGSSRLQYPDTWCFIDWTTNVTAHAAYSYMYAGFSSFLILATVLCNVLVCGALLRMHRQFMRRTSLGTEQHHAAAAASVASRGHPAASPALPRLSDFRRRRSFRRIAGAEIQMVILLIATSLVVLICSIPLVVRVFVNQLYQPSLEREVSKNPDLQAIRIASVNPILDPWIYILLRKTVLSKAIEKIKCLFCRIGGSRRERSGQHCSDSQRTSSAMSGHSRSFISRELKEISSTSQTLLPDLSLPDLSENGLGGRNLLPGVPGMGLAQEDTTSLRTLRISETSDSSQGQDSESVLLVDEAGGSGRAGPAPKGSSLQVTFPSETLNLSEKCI
Sequence of CYP2D6 (P10635 whole entry, species assumed): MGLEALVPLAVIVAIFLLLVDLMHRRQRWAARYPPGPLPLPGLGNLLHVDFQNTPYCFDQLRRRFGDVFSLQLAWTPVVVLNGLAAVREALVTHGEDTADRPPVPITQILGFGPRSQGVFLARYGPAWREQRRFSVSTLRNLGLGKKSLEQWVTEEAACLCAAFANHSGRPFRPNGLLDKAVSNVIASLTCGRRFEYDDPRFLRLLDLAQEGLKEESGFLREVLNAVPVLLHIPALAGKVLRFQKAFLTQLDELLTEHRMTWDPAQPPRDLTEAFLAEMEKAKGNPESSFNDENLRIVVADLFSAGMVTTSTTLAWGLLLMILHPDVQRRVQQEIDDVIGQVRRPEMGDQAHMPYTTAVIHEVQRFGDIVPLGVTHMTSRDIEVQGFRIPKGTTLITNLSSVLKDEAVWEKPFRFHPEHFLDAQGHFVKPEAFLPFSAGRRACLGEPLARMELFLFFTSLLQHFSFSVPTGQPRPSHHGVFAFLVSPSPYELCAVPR

As to `Cc1cc(Cl)cc2sc(OC3CCN(C(=O)CCCS(=O)(=O)c4cccc(Br)c4)CC3F)nc12` (stereo not drawn) [VU6045330], on hSLO2.2, the “HEK hSLO2.2 % inhib. 10 μM” value is “No inhibition”.

Regarding `Cc1cc(Cl)cc2sc(O[C@H]3CCN(C(=O)CCCS(=O)(=O)c4cccc(Br)c4)C[C@H]3F)nc12` [VU6047606], the “% inhibition at 10 μM” value in data set [1] came out at 11%; with Thyroid Hormone it was 12%; with Imidazoline I2, Central it was 9%; in the data set on Phorbol Ester, 22%. Moreover, the inhibition at 10 µM on Endothelin ETA is 5%; on Estrogen Erα, 6%; on hERG potassium channel, 72%; at Adenosine A1, 5%; at Bradykinin B2, 4%; on Potassium Channel [KATP], -5%. Moreover, the inhibition at 10 µM was 25% at Dopamine D1; -1% on Calcium Channel N-Type; 27% at Cannabinoid CB1; 23% on Prostanoid EP4; 9% on Endothelin ETB; 10% at Neuropeptide Y Y2. The “% of Parent Related Material, Dog” value in [2] is 93.78% and > 82%. Besides, the IC50 at CYP2D6 and on CYP1A2 was > 30 µM each time. Moreover, the “% of Parent Related Material, Pig” value in [3] is 93.66% and > 82%. Moreover, the “% of Parent Related Material, Rat” value in data set [4] is 90.93% and > 82%.

Regarding `O=C(c1ccc(OCc2ccc(OC(F)(F)F)cc2)cc1)N1CCN(c2ccc(C(F)(F)F)cn2)CC1` [VU6032735], the CLobs in data set [5] was determined as 8.6 mL/min/kg. This compound gave an exposure (AUC) in [5] (C57Bl6, mouse, whole blood) of 9840 ng·h/mL. The compound further registered an MRT in data set [5] (C57Bl6, mouse, whole blood) of 45.9 h. Further, the half-life in data set [5] (C57Bl6, mouse, whole blood, read-out: Elim. t1/2 (converted)) was 2020 min. Besides, the Vd in [5] (C57Bl6, mouse, whole blood, read-out: Vss) stood at 23.6 L/kg. In addition, the “% inhibition at 10 μM” value in data set [1] is recorded as 5%; in the data set with Thyroid Hormone it was 4%; with Imidazoline I2, Central it was -2%; in the data set on Phorbol Ester, 12%. The inhibition at 10 µM is 9% at Endothelin ETA; 11% at Estrogen Erα; 9% at hERG potassium channel; 12% at Adenosine A1; -1% on Bradykinin B2; -7% at Potassium Channel [KATP]. Besides, the inhibition at 10 µM on Dopamine D1 was 12%; at Calcium Channel N-Type, 2%; on Cannabinoid CB1, 32%; at Prostanoid EP4 it was -2%; on Endothelin ETB it was 1%; at Neuropeptide Y Y2, 3%. For the same compound, the “% of Parent Related Material, Dog” value in data set [2] is given as > 98%. For the same compound, the IC50 on CYP2D6 and at CYP1A2 was > 30 µM each time. Further, the “% of Parent Related Material, Pig” value in data set [3] is on record as > 98%. In data set [4], the “% of Parent Related Material, Rat” value is recorded as > 98%.
